According to patent US7064139B2, “Method for treating retroviral infections” (Uniroyal Chemical Company, Inc., priority 2001, dated 2006):
≈ marks a conversion by molar mass, not a printed value. Where two headings read alike, the source gives them in different places.

Columns and labels:
[1] = system: HIV-1 (IIIB); experiment: microbe, parasite or virus in culture; type: cell-based; details: for EC50: Human immunodeficiency virus 1, IIIB, CCRF-CEM, read-out: EC50 (ug/ml) HIV-1; for HIV-1 % Protection: protection of CEM cells against virus-induced cytopathicity at the concentration in the previous column
Procedure, shortened: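 Human T-lymphoblast CEM cells at roughly 300,000 cells per ml were infected with about 100 CCID50 of HIV-1 (IIIB). Then 100 μl of the infected suspension went into 200 μl microtiter wells holding 100 μl of 5-fold serial compound dilutions. Inhibition of syncytium formation was scored microscopically on day four post infection, and protection against virus-induced cytopathicity was recorded.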

[2] = system: Davis strain CMV; experiment: Reduction of CMV-induced cytopathicity in HEL cells; type: cell-based, human cytomegalovirus (HCMV); details: for EC50: read-out: Antiviral EC50 (ug/ml) Davis strain CMV; for Antiviral % Inhibition Davis strain CMV: estimate of percent protection at the concentration in the previous column
Procedure, shortened: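 Confluent HEL cells were infected with 100 PFU/well CMV for 1–2 h, then washed and kept in MEM with 2% FCS and test compound. EC50 is the concentration cutting virus-induced cytopathicity by 50% versus untreated control at day 7. Where cytotoxicity interfered, percent protection at the stated concentration is given.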

[3] = system: HIV-2 (ROD); experiment: Inhibition of HIV-2 syncytium formation in CEM cells; type: cell-based; details: for EC50: Human immunodeficiency virus 2, CCRF-CEM, read-out: EC50 (ug/ml) HIV-2; for HIV-2 % Protection: protection of CEM cells against virus-induced cytopathicity at the concentration in the previous column
Procedure, shortened: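 Human T-lymphoblast CEM cells, suspended at roughly 300,000 cells per ml of culture medium, were infected with about 100 CCID50 of HIV-2 (ROD). Aliquots of 100 μl of infected cells were placed in 200 μl microtiter wells holding 100 μl of serial 5-fold compound dilutions, and syncytium formation was scored microscopically four days after infection.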

[4] = Human betaherpesvirus 5, HEL, 168 h
[5] = CEM cells, syncytium formation, day four post infection
[6] = HEL cells, virus-induced cytopathicity after seven days
[7] = Human betaherpesvirus 5, 168 h, HEL cells, virus-induced cytopathicity after seven days

Q: Cc1ccc(C)c(CSc2c(Cl)ccc[n+]2[O-])c1 [Compound 133, 3-Chloro-2-[[(2,5-dimethylphenyl)methyl]thio]pyridine 1-oxide] was tested. Which EC50 [1] did it give?
A: Its EC50 is 0.14 µg/mL (≈ 0.5 µM).

Q: And the EC50 [2, 4]?
A: The EC50 was 25 µg/mL (≈ 89.4 µM).

Q: What about the EC50 [3] of the same molecule?
A: Its EC50 is over 20 µg/mL.

Q: And the “HIV-2 % Protection” value [3]?
A: Its value is 0.0%.

Q: With [O-][n+]1cccc(Cl)c1SCc1ccccc1 [Compound 132] as the molecule, how does the “EC50 (ug/ml) HIV-1” value [1, 5] read?
A: The value was 2.40 µg/mL (≈ 9.53 µM).

Q: What about the “Antiviral % Inhibition Davis strain CMV” value ([2]; HEL cells) of the same molecule?
A: Its value is 0.0%.

Q: And the “Antiviral EC50 (ug/ml) Davis strain CMV” value [2, 6]?
A: Its value is over 50 µg/mL.

Q: And the “EC50 (ug/ml) HIV-2” value [3, 5]?
A: Its value is over 20.00 µg/mL.

Q: What about the “HIV-2 % Protection” value [3] of the same molecule?
A: The value was 0.0%.

Q: Which “EC50 (ug/ml) HIV-1” value [1, 5] does the source give for Cc1ccc(C)c(CSc2ccccn2)c1.Cl [Compound 157] here?
A: The value was 6.00 µg/mL.

Q: And the “Antiviral % Inhibition Davis strain CMV” value ([2]; HEL cells)?
A: Its value is 0.0%.

Q: And the “Antiviral EC50 (ug/ml) Davis strain CMV” value [2, 6]?
A: Its value is over 50 µg/mL.

Q: And the “EC50 (ug/ml) HIV-2” value [3, 5]?
A: The value was “≧20 ug/ml”.

Q: What about the “HIV-2 % Protection” value [3] of the same molecule?
A: Its value is 37.5%.

Q: With O=S(=O)(Cc1c(Cl)cccc1Cl)c1cccc[n+]1[O-] [Compound 17, 2-(2,6-Dichlorophenylmethylsulfonyl)pyridine N-oxide] as the molecule, how does the EC50 [1, 5] read?
A: Its EC50 is 9 µg/mL (≈ 28.3 µM).

Q: What about the EC50 [2, 7] of the same molecule?
A: The EC50 was 5 µg/mL (≈ 15.7 µM).

Q: And the EC50 [3, 5]?
A: The EC50 was 8 µg/mL (≈ 25.1 µM).

Q: COc1ccc(CSc2cc(CC(C)C)cc[n+]2[O-])cc1 [Compound 134] was tested. Which “EC50 (ug/ml) HIV-1” value [1, 5] did it give?
A: Its value is over 20 µg/mL.

Q: What about the “HIV-1 % Protection” value [1] of the same molecule?
A: The value was 0.0%.

Q: And the “Antiviral EC50 (ug/ml) Davis strain CMV” value [2, 6]?
A: The value was 50.0 µg/mL.

Q: And the “EC50 (ug/ml) HIV-2” value [3, 5]?
A: Its value is over 100.0 µg/mL.

Q: And the “HIV-2 % Protection” value [3]?
A: The value was 0.0%.

Q: Which “EC50 (ug/ml) HIV-1” value [1, 5] does the source give for Cc1ccc(C)c(C(C)[S+]([O-])c2cccc[n+]2[O-])c1 (stereo not drawn) [Compound 103] here?
A: The value was “>.8 µg/mL”.

Q: And the “HIV-1 % Protection” value [1]?
A: The value was 0.0%.

Q: And the “Antiviral EC50 (ug/ml) Davis strain CMV” value [2, 6]?
A: The value was 4.3 µg/mL.

Q: And the “EC50 (ug/ml) HIV-2” value [3, 5]?
A: The value was over 0.8 µg/mL.

Q: What about the “HIV-2 % Protection” value [3] of the same molecule?
A: Its value is 0.0%.

Q: For Cc1ccc(C)c(C(C)S(=O)(=O)c2ccccn2)c1 (stereo not drawn) [Compound 161], which “EC50 (ug/ml) HIV-1” value [1, 5] is on record?
A: The value was 9.50 µg/mL (≈ 34.5 µM).

Q: What about the “Antiviral EC50 (ug/ml) Davis strain CMV” value [2, 6] of the same molecule?
A: Its value is 38.0 µg/mL.

Q: What about the “EC50 (ug/ml) HIV-2” value [3, 5] of the same molecule?
A: Its value is over 100 µg/mL.

Q: What about the “HIV-2 % Protection” value [3] of the same molecule?
A: The value was 0.0%.

Q: With Cc1ccc(C)c(C(Cl)S(=O)(=O)c2ccccn2)c1 (stereo not drawn) [Compound 106, 2-((2,5-dimethylphenyl)chloromethylsulphonyl)pyridine] as the molecule, how does the EC50 [1, 5] read?
A: The EC50 was 0.9 µg/mL (≈ 3.04 µM).

Q: What about the EC50 [2, 7] of the same molecule?
A: The EC50 was 20 µg/mL (≈ 67.6 µM).

Q: What about the EC50 [3, 5] of the same molecule?
A: The EC50 was over 4 µg/mL.

Q: And the “HIV-2 % Protection” value [3]?
A: Its value is 0.0%.

Q: For Cc1ccccc1C(C)S(=O)(=O)c1cccc[n+]1[O-] (stereo not drawn) [Compound 104], which “EC50 (ug/ml) HIV-1” value [1, 5] is on record?
A: The value was 40.00 µg/mL (≈ 144 µM).

Q: And the “Antiviral EC50 (ug/ml) Davis strain CMV” value [2, 6]?
A: Its value is 34.5 µg/mL.

Q: And the “EC50 (ug/ml) HIV-2” value [3, 5]?
A: Its value is 2.5 µg/mL (≈ 9.01 µM).

Q: Cc1ccc(C)c(CS(=O)(=O)c2cccc(Cl)[n+]2[O-])c1 [Compound 77] was tested. Which “EC50 (ug/ml) HIV-1” value [1, 5] did it give?
A: Its value is 0.70 µg/mL (≈ 2.25 µM).

Q: What about the “Antiviral EC50 (ug/ml) Davis strain CMV” value [2, 6] of the same molecule?
A: The value was 11.0 µg/mL.

Q: And the “EC50 (ug/ml) HIV-2” value [3, 5]?
A: The value was over 0.8 µg/mL.

Q: And the “HIV-2 % Protection” value [3]?
A: The value was 0.0%.

Q: For O=S(=O)(Cc1ccccc1Oc1ccccc1)c1cccc[n+]1[O-] [Compound 56], which “EC50 (ug/ml) HIV-1” value [1, 5] is on record?
A: Its value is 5.30 µg/mL (≈ 15.5 µM).

Q: What about the “Antiviral % Inhibition Davis strain CMV” value ([2]; HEL cells) of the same molecule?
A: The value was 20.0%.

Q: And the “Antiviral EC50 (ug/ml) Davis strain CMV” value [2, 6]?
A: Its value is over 5 µg/mL.

Q: What about the “EC50 (ug/ml) HIV-2” value [3, 5] of the same molecule?
A: Its value is 4.7 µg/mL (≈ 13.8 µM).

Q: How did the EC50 [1, 5] turn out when Oc1cccnc1SCc1ccccc1 [Compound 140, 2-[(Phenylmethyl)thio]-3-pyridinol] was run?
A: Its EC50 is 2 µg/mL (≈ 9.2 µM).

Q: And the EC50 [2, 4]?
A: Its EC50 is 12 µg/mL (≈ 55.2 µM).

Q: And the EC50 [3]?
A: The EC50 was 12 µg/mL (≈ 55.2 µM).

Q: What does the source list for Cc1ccccc1CS(=O)(=O)c1c(C)ccc[n+]1[O-] [Compound 82]?
A: EC50 (ug/ml) HIV-1 [1, 5]: 9.30 µg/mL (≈ 33.5 µM); Antiviral % Inhibition Davis strain CMV ([2]; HEL cells): 0.0%; Antiviral EC50 (ug/ml) Davis strain CMV [2, 6]: >5 µg/mL; EC50 (ug/ml) HIV-2 [3, 5]: ≧20 ug/ml; HIV-2 % Protection [3]: 37.5%

Q: Which results are given for CCc1cccc2c(C)cc(S(=O)(=O)C(C)c3ccccc3)nc12 (stereo not drawn) [Compound 107, 8-ethyl-4-methyl-2-[(1-phenylethyl)sulfonyl]-quinoline]?
A: EC50 [1, 5]: 0.65 µg/mL (≈ 1.91 µM); Antiviral % Inhibition Davis strain CMV ([2]; HEL cells): 0.0%; EC50 [2, 7]: > 20 µg/mL; EC50 [3, 5]: > 100 µg/mL

Q: How did the “EC50 (ug/ml) HIV-1” value [1, 5] turn out when COc1ccc(C)cc1CS(=O)(=O)c1cccc[n+]1[O-] [Compound 30] was run?
A: The value was 1.60 µg/mL (≈ 5.45 µM).

Q: And the “Antiviral EC50 (ug/ml) Davis strain CMV” value [2, 6]?
A: Its value is 37.0 µg/mL.

Q: And the “EC50 (ug/ml) HIV-2” value [3, 5]?
A: The value was 14.0 µg/mL (≈ 47.7 µM).

Q: Which “EC50 (ug/ml) HIV-1” value [1, 5] does the source give for Cc1ccc(N)cc1C(C)S(=O)(=O)c1cccc[n+]1[O-] (stereo not drawn) [Compound 1] here?
A: Its value is 20.00 µg/mL (≈ 68.4 µM).

Q: What about the “Antiviral % Inhibition Davis strain CMV” value ([2]; HEL cells) of the same molecule?
A: Its value is 0.0%.

Q: What about the “Antiviral EC50 (ug/ml) Davis strain CMV” value [2, 6] of the same molecule?
A: Its value is over 50 µg/mL.

Q: And the “EC50 (ug/ml) HIV-2” value [3, 5]?
A: The value was 41.0 µg/mL (≈ 140 µM).

Q: For Cc1ccc(C)c(C(C)S(=O)(=O)c2c(C)ccc[n+]2[O-])c1 (stereo not drawn) [Compound 71, 2-[1-(2,5-Dimethylphenyl)ethylsulfonyl]-3-methylpyridine N-oxide], which EC50 [1, 5] is on record?
A: Its EC50 is 0.05 µg/mL (≈ 0.164 µM).

Q: What about the EC50 [2, 7] of the same molecule?
A: The EC50 was 3.2 µg/mL (≈ 10.5 µM).

Q: What about the EC50 [3, 5] of the same molecule?
A: The EC50 was over 20 µg/mL.

Q: What about the “HIV-2 % Protection” value [3] of the same molecule?
A: The value was 0.0%.
